Broadly, the inhibition is how much of the control response was suppressed. As a reminder, the IC50 is the concentration that inhibits the measured activity by half.

Assay in all cases: kinase selectivity panel
Common to all, as to type: biochemical

For experiment [1], the target named is T1, JNK2α2 (Homo sapiens, UniProt P45984).
T1 construct: purchased Eurofins Pharma Discovery Services (KinaseProfiler; Cerep BioPrint panel)
The note with it: read-out: percentage of control activity (POC), JNK2α2. Summed up:
(§1)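 Tested at 10 μM in duplicate within a panel of 125 representative kinases. For selected activities, IC50 values were then determined from 9 concentrations, each run in duplicate.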

Experiment [2] deals with T2, MSK2 (Homo sapiens, UniProt O75676).
T2 construct: purchased Eurofins Pharma Discovery Services (KinaseProfiler; Cerep BioPrint panel)
The settings on record: read-out: percentage of control activity (POC), MSK2. Summed up: as §1

Experiment [3] deals with T3, IKKα (Homo sapiens, UniProt O15111).
T3 construct: purchased Eurofins Pharma Discovery Services (KinaseProfiler; Cerep BioPrint panel)
T3 sequence (O15111 1-745): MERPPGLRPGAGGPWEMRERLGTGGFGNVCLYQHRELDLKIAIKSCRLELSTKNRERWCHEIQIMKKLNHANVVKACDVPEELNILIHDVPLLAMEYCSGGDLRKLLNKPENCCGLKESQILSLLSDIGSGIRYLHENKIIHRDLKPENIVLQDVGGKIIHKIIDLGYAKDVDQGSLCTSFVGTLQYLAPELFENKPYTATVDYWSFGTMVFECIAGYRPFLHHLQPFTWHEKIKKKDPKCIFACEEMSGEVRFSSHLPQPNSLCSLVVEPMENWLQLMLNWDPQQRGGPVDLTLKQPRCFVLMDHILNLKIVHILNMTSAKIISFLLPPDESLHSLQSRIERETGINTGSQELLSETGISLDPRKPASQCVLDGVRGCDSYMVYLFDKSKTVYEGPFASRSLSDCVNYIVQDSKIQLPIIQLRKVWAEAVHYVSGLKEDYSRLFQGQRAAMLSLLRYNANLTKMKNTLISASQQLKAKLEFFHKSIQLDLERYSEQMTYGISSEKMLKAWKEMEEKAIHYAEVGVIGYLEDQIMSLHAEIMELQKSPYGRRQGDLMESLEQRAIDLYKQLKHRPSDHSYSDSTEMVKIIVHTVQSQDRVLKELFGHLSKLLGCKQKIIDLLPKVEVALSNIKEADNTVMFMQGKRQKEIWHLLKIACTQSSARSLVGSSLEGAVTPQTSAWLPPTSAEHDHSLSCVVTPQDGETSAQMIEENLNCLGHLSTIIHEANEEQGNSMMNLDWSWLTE
The note with it: read-out: percentage of control activity (POC), IKKα. Summed up: as §1

Experiment [4] addresses T4, Pim-1 (Homo sapiens, UniProt P11309).
T4 construct: purchased Eurofins Pharma Discovery Services (KinaseProfiler; Cerep BioPrint panel)
The note with it: read-out: percentage of control activity (POC), Pim-1. Summed up: as §1

For experiment [5], the target named is T5, TAK1 (Homo sapiens, UniProt O43318).
T5 construct: purchased Eurofins Pharma Discovery Services (KinaseProfiler; Cerep BioPrint panel)
T5 sequence (O43318 1-303 limits assumed): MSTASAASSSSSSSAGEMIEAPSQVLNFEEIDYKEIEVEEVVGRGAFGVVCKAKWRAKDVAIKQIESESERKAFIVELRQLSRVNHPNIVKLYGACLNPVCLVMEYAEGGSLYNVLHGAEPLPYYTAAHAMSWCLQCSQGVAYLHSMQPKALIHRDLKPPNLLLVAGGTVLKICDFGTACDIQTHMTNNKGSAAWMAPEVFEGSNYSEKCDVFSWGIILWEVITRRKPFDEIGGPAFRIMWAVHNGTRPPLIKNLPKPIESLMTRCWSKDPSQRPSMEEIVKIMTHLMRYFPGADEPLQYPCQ
The settings on record: read-out: percentage of control activity (POC), TAK1. Summed up: as §1

Experiment [6] has as its target T6, Axl (Homo sapiens, UniProt P30530).
T6 construct: purchased Eurofins Pharma Discovery Services (KinaseProfiler; Cerep BioPrint panel)
T6 sequence (P30530 26-894): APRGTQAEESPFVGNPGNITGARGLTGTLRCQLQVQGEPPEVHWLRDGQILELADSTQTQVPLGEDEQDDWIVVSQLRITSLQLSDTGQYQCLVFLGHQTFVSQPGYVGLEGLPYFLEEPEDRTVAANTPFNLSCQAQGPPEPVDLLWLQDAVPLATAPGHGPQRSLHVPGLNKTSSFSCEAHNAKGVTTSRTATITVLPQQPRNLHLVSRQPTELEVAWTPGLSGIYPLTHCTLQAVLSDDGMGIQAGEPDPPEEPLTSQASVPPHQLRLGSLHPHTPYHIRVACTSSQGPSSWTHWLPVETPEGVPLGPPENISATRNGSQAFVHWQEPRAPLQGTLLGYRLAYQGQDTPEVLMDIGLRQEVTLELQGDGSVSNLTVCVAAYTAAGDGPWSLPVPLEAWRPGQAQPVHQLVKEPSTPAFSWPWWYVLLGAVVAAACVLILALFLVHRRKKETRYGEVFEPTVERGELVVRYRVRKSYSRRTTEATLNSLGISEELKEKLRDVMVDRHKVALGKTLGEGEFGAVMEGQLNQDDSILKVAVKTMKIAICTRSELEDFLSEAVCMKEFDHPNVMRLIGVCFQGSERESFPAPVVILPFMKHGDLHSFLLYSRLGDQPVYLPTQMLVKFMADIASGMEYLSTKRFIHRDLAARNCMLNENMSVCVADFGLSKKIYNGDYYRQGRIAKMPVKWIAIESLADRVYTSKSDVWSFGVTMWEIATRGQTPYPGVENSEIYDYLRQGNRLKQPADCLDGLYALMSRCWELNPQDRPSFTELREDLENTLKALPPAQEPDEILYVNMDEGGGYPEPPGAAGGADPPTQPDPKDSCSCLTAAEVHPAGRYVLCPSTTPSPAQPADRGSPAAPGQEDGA
The settings on record: read-out: percentage of control activity (POC), Axl. In outline: as §1

Experiment [7] concerns the target Syk (Homo sapiens, UniProt P43405). The settings on record: read-out: percentage of control activity (POC), Syk. In outline:
as §1

The target in experiment [8] is T7, Yes (Homo sapiens, UniProt P07947).
T7 construct: Eurofins Pharma Discovery Services (contract assay service)
The note with it: for remaining activity at 10 µM: read-out: percentage of control activity (POC), Yes. Summed up: as §1

Structures are written as SMILES.

T2 sequence (O75676 whole entry): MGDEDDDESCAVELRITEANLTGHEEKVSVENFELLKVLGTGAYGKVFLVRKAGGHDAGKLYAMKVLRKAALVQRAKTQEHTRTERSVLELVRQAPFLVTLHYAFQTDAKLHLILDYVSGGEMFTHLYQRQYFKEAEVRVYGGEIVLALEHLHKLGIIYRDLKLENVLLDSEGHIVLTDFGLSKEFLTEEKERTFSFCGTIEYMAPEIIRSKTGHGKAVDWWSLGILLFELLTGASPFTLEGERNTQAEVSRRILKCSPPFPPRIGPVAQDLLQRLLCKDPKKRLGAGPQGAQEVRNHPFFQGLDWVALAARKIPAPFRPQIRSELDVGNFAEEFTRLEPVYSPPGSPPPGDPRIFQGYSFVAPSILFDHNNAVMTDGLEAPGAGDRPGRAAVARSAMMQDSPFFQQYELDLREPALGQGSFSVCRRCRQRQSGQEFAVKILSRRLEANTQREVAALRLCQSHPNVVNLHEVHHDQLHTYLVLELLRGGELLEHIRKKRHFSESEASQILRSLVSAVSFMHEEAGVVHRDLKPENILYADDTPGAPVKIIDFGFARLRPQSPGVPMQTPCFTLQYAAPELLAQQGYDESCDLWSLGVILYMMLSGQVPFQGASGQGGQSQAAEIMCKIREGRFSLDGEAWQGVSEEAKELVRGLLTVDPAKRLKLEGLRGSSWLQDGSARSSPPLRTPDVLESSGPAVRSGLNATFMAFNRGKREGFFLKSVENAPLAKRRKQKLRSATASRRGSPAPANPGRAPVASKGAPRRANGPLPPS
T7 sequence (P07947 whole entry, species assumed): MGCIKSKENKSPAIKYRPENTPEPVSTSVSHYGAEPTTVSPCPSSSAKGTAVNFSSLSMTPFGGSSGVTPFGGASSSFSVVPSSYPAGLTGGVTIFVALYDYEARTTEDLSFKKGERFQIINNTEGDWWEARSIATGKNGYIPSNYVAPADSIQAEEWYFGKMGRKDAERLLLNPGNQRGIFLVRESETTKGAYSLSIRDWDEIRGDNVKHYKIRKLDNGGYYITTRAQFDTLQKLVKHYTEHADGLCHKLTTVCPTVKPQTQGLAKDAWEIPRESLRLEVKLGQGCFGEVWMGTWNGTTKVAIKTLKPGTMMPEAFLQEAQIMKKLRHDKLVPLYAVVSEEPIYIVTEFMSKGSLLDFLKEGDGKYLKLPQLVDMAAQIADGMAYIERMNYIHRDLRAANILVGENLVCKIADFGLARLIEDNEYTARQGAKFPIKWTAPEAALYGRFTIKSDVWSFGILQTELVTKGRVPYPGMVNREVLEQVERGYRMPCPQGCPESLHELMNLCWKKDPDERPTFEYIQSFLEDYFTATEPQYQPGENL
T4 sequence (P11309 whole entry): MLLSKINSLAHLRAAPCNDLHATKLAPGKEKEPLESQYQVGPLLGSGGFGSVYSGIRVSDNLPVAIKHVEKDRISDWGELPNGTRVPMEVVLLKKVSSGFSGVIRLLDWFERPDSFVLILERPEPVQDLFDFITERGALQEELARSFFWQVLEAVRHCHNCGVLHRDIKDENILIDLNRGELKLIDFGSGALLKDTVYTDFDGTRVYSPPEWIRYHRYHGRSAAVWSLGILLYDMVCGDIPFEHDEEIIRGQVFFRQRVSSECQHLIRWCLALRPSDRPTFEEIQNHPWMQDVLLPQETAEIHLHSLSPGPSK
T1 sequence (P45984 whole entry): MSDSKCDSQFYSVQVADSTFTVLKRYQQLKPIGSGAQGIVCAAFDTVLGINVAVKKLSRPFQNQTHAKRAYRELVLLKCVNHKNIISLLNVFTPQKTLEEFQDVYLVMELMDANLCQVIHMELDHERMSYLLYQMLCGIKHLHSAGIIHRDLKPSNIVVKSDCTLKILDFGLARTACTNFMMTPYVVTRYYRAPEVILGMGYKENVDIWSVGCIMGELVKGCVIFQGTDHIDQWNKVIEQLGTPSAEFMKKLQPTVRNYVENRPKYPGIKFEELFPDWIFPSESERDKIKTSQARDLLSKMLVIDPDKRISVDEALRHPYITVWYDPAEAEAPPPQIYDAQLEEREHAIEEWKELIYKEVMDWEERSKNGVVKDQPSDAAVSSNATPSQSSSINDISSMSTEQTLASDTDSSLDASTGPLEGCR

Turning to `Cn1cc(-c2cccc(-c3nc(C(=O)NC4C5CC6CC4CC(O)(C6)C5)c(N)nc3N)c2)cn1` (stereo not drawn) [compound 4], the remaining activity at 10 µM in experiment [1] is 98%; in experiment [2] it was 96%; in experiment [3], 100%; in experiment [4], 68%; in experiment [5], 97%; in experiment [6], 59%. Further, the remaining activity at 10 µM in experiment [7] was 66%; in experiment [8] (10 μM), 23%. For the same molecule, testing at 10 µM in experiment [8] (10 μM) gave an inhibition of 77%. The concentration for half-maximal inhibition (IC50) in experiment [8] (biochemical dose response, duplicate, read-out: Inhibition of indicated activity (IC50, μM): Yes) is 2.39 µM.
`COc1c(NC(=O)c2ccc(C)c(-c3nnc4c(NCC(C)(C)C)nccn34)c2)cc(C(C)(C)C)cc1NS(C)(=O)=O` [compound 7, reference compound]: the remaining activity at 10 µM in experiment [1] came out at 91%; in experiment [2], 109%; in experiment [3], 135%; in experiment [4], 96%; in experiment [5], 103%; in experiment [6], 91%. Moreover, the results for the remaining activity at 10 µM in experiment [7] and in experiment [8] (10 μM) were 86% and 99%, respectively.
`Cc1ccc(C(=O)NCC2CC2)cc1-c1ccc2c(c1)NC(=O)C21CCCC1` [compound 3]: the remaining activity at 10 µM worked out at 94% in experiment [1]; 91% in experiment [2]; 101% in experiment [3]; 79% in experiment [4]; 97% in experiment [5]; 88% in experiment [6]. In addition, the remaining activity at 10 µM in experiment [7] amounted to 101%; in experiment [8] (10 μM), 100%.
Take `CC(C)(C)N1CCC(c2cc(-c3ccc(F)cc3Cl)c3cc[n+]([O-])c(-c4c(Cl)cccc4Cl)c3n2)CC1` [compound 2]: the remaining activity at 10 µM in experiment [1] turned out to be 101%; in experiment [2], 90%; in experiment [3], 102%; in experiment [4], 86%; in experiment [5] it was 105%; in experiment [6], 98%. In addition, the remaining activity at 10 µM in experiment [7] was found to be 95%; in experiment [8] (10 μM), 107%.
On to `CS(=O)(=O)N1CCN(c2ccc(Nc3ncc(C(N)=O)c(NC4CC4)n3)cc2)CC1` [compound 5], for which the remaining activity at 10 µM was 8% in experiment [1]; 21% in experiment [2]; 1% in experiment [3]; 81% in experiment [4]; 1% in experiment [5]; 12% in experiment [6]. In addition, the remaining activity at 10 µM is 0% in experiment [7] and 4% in experiment [8] (10 μM).

For the origin of these results see paper PMC5761851, “Application of a phenotypic drug discovery strategy to identify biological and chemical starting points for inhibition of TSLP production in lung epithelial cells” (PLoS ONE, 2018).
